Patent US9545119B2, “Specific vanillyl lignans and use thereof as taste improvers” (SYMRISE AG, priority 2011, dated 2017)
Marks after values point to notes of the source that are not given here.

Experiments:
Format in all cases: in vivo
[1] = tested on: caffeine solution containing 500 ppm; assay: Bitterness reduction in a bitter substance solution (expert panel), caffeine; details: for Reduction in the bitterness impression: * = significant; for Bitterness impression (on scale of 1-10) b) with test substance: 25 ppm test substance + 500 ppm caffeine, scale 1 (not bitter) to 10 (extremely bitter), panel mean; for Effect on bitterness (in words): statement in the description referring to Example 1
From the text: (§1) In order to quantify a reduction in the bitterness impression in a sample, the bitterness of a caffeine solution containing 500 ppm was compared by a panel of experts, in each case with a sample containing 500 ppm caffeine and also the respectively given quantity of a substance to be assessed (with regard to the ability thereof to reduce bitterness), with assessment on a scale from 1 (not bitter) to 10 (extremely bitter). For the evaluation, i.e. the calculation of the reduction (in %) of the bitterness impression, in each case, the mean values of the estimates by the expert panel for the caffeine solution and the sample to be compared, which contained caffeine and a substance under assessment were used. In addition to caffeine, other bitter substances such as theobromine, naringin, quinine hydrochloride dihydrate and salicin were tested using the same method.

[2] = tested on: 5 ppm quinine hydrochloride dihydrate; assay: Bitterness reduction in a bitter substance solution (expert panel), quinine hydrochloride dihydrate
From the text: as §1

100 ppm naringin = assay: Bitterness reduction in a bitter substance solution (expert panel), naringin; details: for Reduction in the bitterness impression: 25 ppm test substance + 100 ppm naringin vs naringin alone, * = significant; for Bitterness impression (on scale of 1-10) b) with test substance: 25 ppm test substance + 100 ppm naringin, scale 1-10
From the text: as §1

250 ppm salicin = assay: Bitterness reduction in a bitter substance solution (expert panel), salicin
From the text: as §1

300 ppm theobromine = assay: Bitterness reduction in a bitter substance solution (expert panel), theobromine; details: for Reduction in the bitterness impression: 25 ppm test substance + 300 ppm theobromine vs theobromine alone; for Bitterness impression (on scale of 1-10) b) with test substance: 25 ppm test substance + 300 ppm theobromine, scale 1-10
From the text: as §1

[3] = tested on: 750 ppm epigallocatechin gallate (EGCG); assay: Bitterness and astringency reduction in a bitter substance solution over time (expert panel); details: 100 ppm test substance + 750 ppm EGCG; time 0 s
[4] = tested on: 750 ppm epigallocatechin gallate (EGCG); assay: as above; details: 100 ppm test substance + 750 ppm EGCG
From the text: In order to quantify the reduction in the bitterness or astringency impression in a sample over a particular period of time, the bitterness or astringency of a solution containing 750 ppm epigallocatechin gallate (EGCG) was compared by a panel of experts, in each case with a sample containing 750 ppm epigallocatechin gallate and also the respectively shown quantity of a substance to be assessed (with regard to the ability thereof to reduce bitterness and/or astringency), in this case matairesinol (Compound 1-(−)).
Assessment was carried out on a scale from 1 (not bitter) to 10 (extremely bitter) or 1 (not astringent) to 10 (extremely astringent). The assessment by the panelists was carried out at specified time points (10 seconds, 30 seconds, 50 seconds and 70 seconds after ingestion of the respective sample). The samples were assessed by the panellists one after another following neutralisation. For the evaluation, i.e. the calculation of the reduction (in %) of the bitterness impression or astringency impression, at each time point, the mean values of the estimates by the expert panel for the epigallocatechin gallate solution and the sample to be compared therewith which contained the epigallocatechin gallate and the substance under assessment (in this case: matairesinol (Compound 1-(−)) were used.

[5] = 25 ppm test substance + 500 ppm caffeine vs 500 ppm caffeine alone

Compound: COc1cc(C2c3cc(O)c(OC)cc3CC(CO)C2CO)ccc1O (single isomer, unassigned; (+)) [(+)-isolariciresinol (5-(+)), 1,2,3,4-tetrahydro-7-hydroxy-1-(4-hydroxy-3-methoxy-phenyl)-6-methoxy-2,3-naphthalenedimethanol]
- Reduction in the bitterness impression [1, 5]: 10.3%
- Bitterness impression (on scale of 1-10) b) with test substance [1]: 4.1 ± 2.21

Compound: COc1cc(C[C@H]2CO[C@H](c3ccc(O)c(OC)c3)[C@H]2CO)ccc1O [(+)-lariciresinol (3-(+)), 4-[[(3R,4R,5S)-5-(4-hydroxy-3-methoxyphenyl)-4-(hydroxy-methyl)-oxolan-3-yl]methyl]-2-methoxyphenol]
- Reduction in the bitterness impression ([2]; 25 ppm test substance + 5 ppm quinine hydrochloride dihydrate vs quinine alone, * = significant): 30.9%*
- Bitterness impression (on scale of 1-10) b) with test substance ([2]; 25 ppm test substance + 5 ppm quinine hydrochloride dihydrate, scale 1-10): 2.5 ± 1.02
- Reduction in the bitterness impression (100 ppm naringin): 39.5%*
- Bitterness impression (on scale of 1-10) b) with test substance (100 ppm naringin): 3.6 ± 1.75
- Reduction in the bitterness impression (250 ppm salicin; 25 ppm test substance + 250 ppm salicin vs salicin alone): 17.1%
- Bitterness impression (on scale of 1-10) b) with test substance (250 ppm salicin; 25 ppm test substance + 250 ppm salicin, scale 1-10): 5.7 ± 2.97
- Reduction in the bitterness impression [1, 5]: 38.6%*
- Bitterness impression (on scale of 1-10) b) with test substance [1]: 2.9 ± 1.41
- Reduction in the bitterness impression (300 ppm theobromine): 10.7%
- Bitterness impression (on scale of 1-10) b) with test substance (300 ppm theobromine): 3.7 ± 2.24

Compound: COc1cc(C[C@H]2C(=O)OC[C@@H]2Cc2ccc(OC)c(OC)c2)ccc1O [(−)-arctigenin (4), (3R,4R)-4-[(3,4-dimethoxyphenyl)methyl]-3-[(4-hydroxy-3-methoxy-phenyl)methyl]oxolan-2-one]
- Reduction in the bitterness impression [1, 5]: 11.5%
- Bitterness impression (on scale of 1-10) b) with test substance [1]: 2.8 ± 1.68

Compound: COc1cc(C[C@H]2C(=O)OC[C@@H]2[C@H](O)c2ccc(O)c(OC)c2)ccc1O [(−)-hydroxymatairesinol(2-(−)), (3R,4R)-4-[(S)-hydroxy-(4-hydroxy-3-methoxy-phenyl)methyl]-3-[(4-hydroxy-3-methoxyphenyl)methyl]oxolan-2-one]
- Reduction in the bitterness impression [1, 5]: 41.9%*
- Bitterness impression (on scale of 1-10) b) with test substance [1]: 2.6 ± 1.72

Compound: COc1cc(C[C@H]2COC(=O)[C@@H]2Cc2ccc(O)c(OC)c2)ccc1O [(−)-matairesinol (1-(−)), (3R,4R)-3,4-bis[(4-hydroxy-3-methoxyphenyl)methyl]oxolan-2-one]
- Reduction in the bitterness impression (100 ppm naringin): 15.1%
- Bitterness impression (on scale of 1-10) b) with test substance (100 ppm naringin): 4.9 ± 2.38
- % Reduction in the astringency impression [3]: −11%
- % reduction in the bitterness impression [3]: −15%
- % Reduction in the astringency impression ([4]; time 10 s): −10%*
- % reduction in the bitterness impression ([4]; time 10 s): −30%*
- % Reduction in the astringency impression ([4]; time 30 s): −15%
- % reduction in the bitterness impression ([4]; time 30 s): −38%*
- % Reduction in the astringency impression ([4]; time 50 s): −20%
- % reduction in the bitterness impression ([4]; time 50 s): −33%*
- % Reduction in the astringency impression ([4]; time 70 s): −23%
- % reduction in the bitterness impression ([4]; time 70 s): −28%
- Reduction in the bitterness impression [1, 5]: 35.5%*
- Bitterness impression (on scale of 1-10) b) with test substance [1]: 2.7 ± 1.77
- Reduction in the bitterness impression (300 ppm theobromine): 24.7%
- Bitterness impression (on scale of 1-10) b) with test substance (300 ppm theobromine): 3.4 ± 1.49

Compound: COc1cc([C@@H]2c3cc(O)c(OC)cc3C[C@H]3C(=O)OC[C@@H]23)ccc1O [(−)-α-conidendrin (6-(−)), (3aR,9R,9aS)-7-hydroxy-9-(4-hydroxy-3-methoxyphenyl)-6-methoxy-3a,4,9,9a-tetrahydro-1H-benzo[f][2]benzofuran-3-one]
- Reduction in the bitterness impression [1, 5]: 20.8%
- Bitterness impression (on scale of 1-10) b) with test substance [1]: 2.5 ± 0.94

Compound: COc1cc(C[C@@H](CO)[C@H](CO)Cc2ccc(O)c(OC)c2)ccc1O [secoisolariciresinol, reference compound]
- Amplification of the bitterness impression (printed in column Reduction in the bitterness impression) ([1]; 25 ppm test substance + 500 ppm caffeine vs 500 ppm caffeine alone, comparative example): 34%
- Bitterness impression (on scale of 1-10) b) with test substance [1]: 5.2 ± 2.6
- Effect on bitterness (in words) [1]: amplifies the bitterness
- Effect on bitterness (in words) ([1]; listed as Secoisolariciresinol): capable of amplifying bitter taste impressions
